Reference: ChEMBL document CHEMBL4130585, “Pimentelamines A-C, Indole Alkaloids Isolated from the Leaves of the Australian Tree Flindersia pimenteliana” (J Nat Prod, 2017)
Active and inactive are the calls of the source. The rule behind the calls is not given here.

Assays:
Plasmodium falciparum [1] = experiment: Antimalarial activity against chloroquine-sensitive Plasmodium falciparum 3D7 after 72 hrs by DAPI staining based confocal microplate imaging method; format: functional, organism-based; conditions: 3D7, 72 h
HEK293 [2] = experiment: Cytotoxicity against HEK293 cells after 72 hrs by resazurin dye based assay; format: cell-based; conditions: Homo sapiens, HEK293, 72 h
[3] = Selectivity index, ratio of IC50 for HEK293 cells to IC50 for chloroquine-sensitive Plasmodium falciparum 3D7; format: toxicity; conditions: human, read-out: Ratio IC50
Plasmodium falciparum [4] = experiment: Antimalarial activity against chloroquine-resistant Plasmodium falciparum Dd2 after 72 hrs by DAPI staining based confocal microplate imaging method; format: functional, organism-based; conditions: Dd2, 72 h
Plasmodium falciparum [5] = experiment: Growth inhibition of chloroquine-resistant Plasmodium falciparum Dd2 at 40 uM after 72 hrs by DAPI staining based confocal microplate imaging method relative to control; format: functional
HEK293 [6] = experiment: Cytotoxicity against HEK293 cells at 40 uM after 72 hrs by resazurin dye based assay; format: cell-based; conditions: human, hek293, 72 h
Plasmodium falciparum [7] = experiment: Antimalarial activity against chloroquine-sensitive Plasmodium falciparum 3D7 at 40 uM after 72 hrs by DAPI staining based confocal microplate imaging method; format: functional, organism-based
Plasmodium falciparum [8] = experiment: Antimalarial activity against chloroquine-sensitive Plasmodium falciparum 3D7 at 5 uM after 72 hrs by DAPI staining based confocal microplate imaging method relative to control; format: functional

CC1=C[C@@H]2c3c(CCN(C)C)c4ccccc4n3[C@@H](c3[nH]c4ccccc4c3CCN(C)C)[C@@H]2C(C)(C)C1
IC50 (Plasmodium falciparum [1]): 0.67 µM | IC50 (HEK293 [2]): 5.4 µM | selectivity ratio [3]: 8 | IC50 (Plasmodium falciparum [4]): 0.19 µM

CC1=C[C@H]2[C@@H]([C@@H](c3[nH]c4ccccc4c3CCN(C)C)[C@]34CCN(C)[C@]23Nc2ccccc24)C(C)(C)C1
IC50 (Plasmodium falciparum [1]): 0.51 µM | IC50 (HEK293 [2]): 7.1 µM | selectivity ratio [3]: 14 | IC50 (Plasmodium falciparum [4]): 0.34 µM

C[C@@H]1O[C@@H](Oc2c(-c3ccc(O)c(O)c3)oc3cc(O)cc(O)c3c2=O)[C@H](O)[C@H](O)[C@H]1O [QUERCITRIN]
growth inhibition (GI) (Plasmodium falciparum [5]): inactive | Activity (HEK293 [6]): Non-Toxic | Activity (Plasmodium falciparum [7]): inactive

CNCCc1c(C[C@@H]2O[C@]34OC[C@H](O)[C@H]3OC(=O)[C@]4(O)C2(C)C)[nH]c2ccccc12.O=C(O)C(F)(F)F
growth inhibition (GI) (Plasmodium falciparum [5]): inactive | Activity (HEK293 [6]): Non-Toxic | Activity (Plasmodium falciparum [7]): inactive

CCN(CC)CCCC(C)Nc1ccnc2cc(Cl)ccc12 (stereo not drawn) [CHLOROQUINE]
IC50 (HEK293 [2]): 0.49 µM

C[C@H]1[C@@H](O)O[C@@H]2O[C@@]3(C)CC[C@H]4[C@H](C)CC[C@@H]1[C@@]24OO3 [ARTENIMOL]
IC50 (Plasmodium falciparum [1]): 0.0003 µM | IC50 (HEK293 [2]): 9.9 µM | selectivity ratio [3]: 38100 | IC50 (Plasmodium falciparum [4]): 0.0004 µM

C[C@H]1[C@H](OC(=O)CCC(=O)O)O[C@@H]2O[C@@]3(C)CC[C@H]4[C@H](C)CC[C@@H]1[C@@]24OO3 [ARTESUNATE]
IC50 (Plasmodium falciparum [1]): 0.001 µM | IC50 (HEK293 [2]): 7 µM | selectivity ratio [3]: 7990

COc1ccc(C[C@H](N)C(=O)N[C@H]2[C@@H](O)[C@H](n3cnc4c(N(C)C)ncnc43)O[C@@H]2CO)cc1 [PUROMYCIN]
IC50 (HEK293 [2]): 0.45 to 0.69 µM | selectivity ratio [3]: 8 | Activity (Plasmodium falciparum [8]): 100% | IC50 (Plasmodium falciparum [4]): 0.032 µM

CC1(C)C=Cc2c(cc3oc(-c4ccc(O)cc4)cc(=O)c3c2O)O1
IC50 (Plasmodium falciparum [1]): 3.4 µM | selectivity ratio [3]: > 6 | Activity (HEK293 [6]): Non-Toxic | IC50 (Plasmodium falciparum [4]): 2.3 µM

CNCCc1c([C@@H]2[C@@H]3[C@H](C=C(C)CC3(C)C)[C@]34Nc5ccccc5[C@]23CCN4C)[nH]c2ccccc12
IC50 (Plasmodium falciparum [1]): 0.31 µM | IC50 (HEK293 [2]): 5 µM | selectivity ratio [3]: 16 | IC50 (Plasmodium falciparum [4]): 0.22 µM

CC1(C)[C@H](Cc2[nH]c3ccccc3c2CC[N+](C)(C)O)O[C@]23OC[C@H](O)[C@H]2OC(=O)[C@]13O.O=C([O-])C(F)(F)F
IC50 (Plasmodium falciparum [1]): 3.6 µM | selectivity ratio [3]: > 6 | Activity (HEK293 [6]): Non-Toxic | IC50 (Plasmodium falciparum [4]): 2.7 µM

CN(C)CCc1c(C[C@@H]2O[C@]34OC[C@H](O)[C@H]3OC(=O)[C@]4(O)C2(C)C)[nH]c2ccccc12.O=C(O)C(F)(F)F
growth inhibition (GI) (Plasmodium falciparum [5]): inactive | Activity (HEK293 [6]): Non-Toxic | Activity (Plasmodium falciparum [7]): inactive

COc1ccc2nc3cc(Cl)ccc3c(Nc3cc(CN4CCCC4)c(O)c(CN4CCCC4)c3)c2n1 [PYRONARIDINE]
IC50 (HEK293 [2]): 2.9 µM | selectivity ratio [3]: 239 | IC50 (Plasmodium falciparum [4]): 0.14 µM

CCc1nc(N)nc(N)c1-c1ccc(Cl)cc1 [PYRIMETHAMINE]
IC50 (Plasmodium falciparum [1]): 0.006 µM | IC50 (HEK293 [2]): 0.69 µM | inhibition of growth at 40 µM (Plasmodium falciparum [5]; Dd2, 72 h, read-out: GI): 59% | selectivity ratio [3]: 120
